Patent publication US8901307B2, “Chemical compounds 251” (AstraZeneca AB, priority 2008, dated 2014)
Where a name gives a salt, the structure may show the parent alone.

Legend:
human His-PIM2 [23-299] = biological target: T1, human His-PIM2 [23-299] (Homo sapiens, UniProt Q9P1W9); assay: PIM2 in-vitro mobility shift assay (Caliper LC3000, FL-Ahx-Bad phosphorylation); type: biochemical; settings: 1.5 h; percent inhibition at 0.3 uM compound; read-out: PIM2 % I at 0.3 uM
T1 construct: purified human His-PIM2 [23-299] enzyme; His (N); host or cells: E. coli
From the text: PIM2 In-Vitro Mobility Shift Assay
(§1) One may determine the activity of purified human His-PIM2 [23-299] enzyme in-vitro using a mobility shift assay on a Caliper LC3000 reader (Caliper, Mass.), which measures fluorescence of a phosphorylated and unphosphorylated FL-Ahx-Bad (FITC-(AHX)RSRHSSYPAGT-COOH, Primm 200606-00289, Primm Biotech, Mass.) and calculates a ratiometric value to determine percent turnover. One may express PIM2 (produced at AstraZeneca, R&D Boston) in E. coli cells with a typical yield of >90% purity.
One determines phosphorylation of the FL-Ahx-Bad in the presence and absence of the compound of interest. One preincubates 5 uL of Enzyme/Substrate/adenosine triphosphate (ATP) mix consisting of 2.4 nM […], 3.6 uM FL-Ahx-Bad, and 12 uM ATP in 1.2× buffer with 2 ul of compound for 20 minutes at 25° C. One initiates reactions with 5 uL of Metal mix consisting of 24 mM MgCl2 in 1.2× buffer and incubates at 25° C. for 90 minutes. One stops reactions by addition of 5 uL of Stop mix consisting of 100 mM HEPES, 121 mM ethylenediamine tetraacetic acid, 0.8% Coatin Reagent 3 (Caliper, Mass.), and 0.01% Tween. One detects phosphorylated and unphosphorylated substrate by a Caliper LC3000 reader (Caliper, Mass.) in the presence of separation buffer consisting of 100 mM HEPES, 16 mM ethylenediamine tetraacetic acid, 0.1% Coatin Reagent 3 (Caliper, Mass.), 0.015% Brij-35, 5% DMSO, and 5.6 mM MgCl2. One may use the following separation conditions for a Caliper LC3000: −1.0 PSI, −2000 V upstream voltage, −400 V downstream voltage, 0.2 second sample sip, 45 second post sip, 10% laser strength.

human His-PIM1 [2-313] = biological target: T2, human His-PIM1 [2-313] (Homo sapiens, UniProt P11309); assay: PIM1 in-vitro mobility shift assay (Caliper LC3000, FL-Ahx-Bad phosphorylation); type: biochemical; settings: 1.5 h; percent inhibition at 0.3 uM compound; read-out: PIM1 % I at 0.3 uM
T2 construct: purified human His-PIM1 [2-313] enzyme; His (N); purchased University of Dundee, Scotland; host or cells: baculovirus system
From the text: PIM1 In-Vitro Mobility Shift Assay
as §1, with “His-PIM1 [2-313]” for “His-PIM2 [23-299]”, “PIM1 (University of Dundee, Scotland)” for “PIM2 (produced at AstraZeneca, R&D Boston)”, “baculovirus system” for “E. coli cells”, “>85%” for “>90%”
One determines phosphorylation of the FL-Ahx-Bad in the presence and absence of the compound of interest. One preincubates 5 µl of Enzyme/Substrate/adenosine triphosphate (ATP) mix consisting of 2.4 nM PIM1, 3.6 uM FL-Ahx-Bad, and 240 uM ATP in 1.2× buffer with 2 ul of compound for 20 minutes at 25° C. One initiates reactions with 5 ul of Metal mix consisting of 24 mM MgCl2 in 1.2× buffer and incubated at 25° C. for 90 minutes and stops the reactions by addition of 5 ul of Stop mix consisting of 100 mM HEPES, 121 mM ethylenediamine tetraacetic acid, 0.8% Coatin Reagent 3 (Caliper, Mass.), and 0.01% Tween. One detects phosphorylated and unphosphorylated substrate by a Caliper LC3000 reader (Caliper, Mass.) in the presence of separation buffer consisting of 100 mM HEPES, 16 mM ethylenediamine tetraacetic acid, 0.1% Coatin Reagent 3 (Caliper, Mass.), 0.015% Brij-35, 5% DMSO, and 5.6 mM MgCl2. One may use the following separation conditions for a Caliper LC3000: −1.0 PSI, −2000 V upstream voltage, −400 V downstream voltage, 0.2 second sample sip, 45 second post sip, 10% laser strength.
The table 1 below provides the percent inhibition of PIM1 at 0.3 micromolar for Examples provided herein. Several examples were tested more than once. Variations in the experimental outcomes, negative values, or values over 100% inhibition are presumably due to experimental error inherent in the assay.

T1 sequence (Q9P1W9 23-299): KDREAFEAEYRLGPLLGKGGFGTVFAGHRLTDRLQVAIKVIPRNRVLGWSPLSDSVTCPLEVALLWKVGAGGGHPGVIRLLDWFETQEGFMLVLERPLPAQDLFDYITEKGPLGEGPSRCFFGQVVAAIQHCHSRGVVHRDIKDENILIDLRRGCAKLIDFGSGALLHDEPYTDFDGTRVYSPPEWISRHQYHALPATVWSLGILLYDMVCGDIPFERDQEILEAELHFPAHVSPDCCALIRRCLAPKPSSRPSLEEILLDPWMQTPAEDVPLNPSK
T2 sequence (P11309 2-313): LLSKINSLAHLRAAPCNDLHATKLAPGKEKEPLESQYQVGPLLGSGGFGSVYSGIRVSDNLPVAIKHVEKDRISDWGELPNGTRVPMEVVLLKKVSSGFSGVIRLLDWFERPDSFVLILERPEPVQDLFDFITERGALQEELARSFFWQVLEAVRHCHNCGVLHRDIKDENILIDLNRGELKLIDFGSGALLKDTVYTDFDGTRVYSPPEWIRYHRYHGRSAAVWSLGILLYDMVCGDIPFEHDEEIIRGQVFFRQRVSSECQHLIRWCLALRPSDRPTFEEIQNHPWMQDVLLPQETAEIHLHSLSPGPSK

inhibition at 0.3 µM (human His-PIM2 [23-299]) [%]	inhibition at 0.3 µM (human His-PIM1 [2-313]) [%]	Compound
45.4	93.7	CC(C)N1CCN(c2ccccc2/C=C2\SC(=O)NC2=O)CC1 [Example 50, (5Z)-5-[2-(4-isopropylpiperazin-1-yl)benzylidene]-1,3-thiazolidine-2,4-dione]
93.5	> 95	COc1cc(/C=C2\SC(=O)NC2=O)c(N2CCC(N(C)C)C2)cc1OC (stereo not shown) [Example 52, (5Z)-5-{2-[4-(dimethylamino)pyrrolidin-1-yl]-4,5-dimethoxybenzylidene}-1,3-thiazolidine-2,4-dione]
73.1	88.1	COc1cc(/C=C2\SC(=O)NC2=O)c(N2CCC(N(C)C)CC2)cc1OC [Example 54, (5Z)-5-{2-(4-(dimethylamino)piperidin-1-yl)-4,5-dimethoxybenzylidene}-thiazolidine-2,4-dione]
42.6	53.3	CN(C)C1CCN(c2ccc(C(N)=O)cc2/C=C2\SC(=O)NC2=O)C1 (stereo not shown) [Example 57, (Z)-4-(3-(dimethylamino)pyrrolidin-1-yl)-3-((2,4-dioxothiazolidin-5-ylidene)methyl)benzamide hydrochloride]
11.3	35.4	O=C1NC(=O)/C(=C/c2ccccc2OCCO)S1 [Example 60, (Z)-5-(2-(2-hydroxyethoxy)benzylidene)thiazolidine-2,4-dione]

The remaining lines, values behind:

Compound	inhibition at 0.3 µM (human His-PIM2 [23-299]) [%]	inhibition at 0.3 µM (human His-PIM1 [2-313]) [%]
CN(C)CCN(C)c1ccccc1/C=C1\SC(=O)NC1=O [Example 47, (5Z)-5-{2-[[2-(dimethylamino)ethyl](methyl)amino]benzylidene}-1,3-thiazolidine-2,4-dione]	26.3	50
CN(C)C1CCN(c2ccccc2/C=C2\SC(=O)NC2=O)C1 (stereo not shown) [Example 48, (5Z)-5-{2-[3-(dimethylamino)pyrrolidin-1-yl]benzylidene}-1,3-thiazolidine-2,4-dione]	41.3	84.4
CN(C)C1CCN(c2ccccc2/C=C2\SC(=O)NC2=O)CC1 [Example 49, (5Z)-5-{2-[4-(dimethylamino)piperidin-1-yl]benzylidene}-1,3-thiazolidine-2,4-dione]	86.3	> 95
COc1cc(/C=C2\SC(=O)NC2=O)c(N(C)CCN(C)C)cc1OC [Example 51, (5Z)-5-{2-[[2-(dimethylamino)ethyl](methyl)amino]-4,5-dimethoxybenzylidene}-1,3-thiazolidine-2,4-dione]	80.6	85.5
COc1cc(/C=C2\SC(=O)NC2=O)c(N2CCN(C(C)C)CC2)cc1OC [Example 53, (5Z)-5-{2-(4-isopropylpiperazin-1-yl)-4,5-dimethoxybenzylidene}-thiazolidine-2,4-dione]	82.1	92.3
CC(C)(C)OC(=O)N1CCN(c2ccc(C(F)(F)F)cc2/C=C2\SC(=O)NC2=O)CC1 [Example 55, (Z)-tert-butyl 4-(2-((2,4-dioxothiazolidin-5-ylidene)methyl)-4-(trifluoromethyl)phenyl)piperazine-1-carboxylate]	< 5	11
CN(C)C1CCN(c2ccc([N+](=O)[O-])cc2/C=C2\SC(=O)NC2=O)C1 (stereo not shown) [Example 56, (Z)-5-(2-(3-(dimethylamino)pyrrolidin-1-yl)-5-nitrobenzylidene)thiazolidine-2,4-dione hydrochloride]	33.5	90.7
CC(C)(C)OC(=O)N1CCN(c2ccccc2/C=C2\SC(=O)NC2=O)CC1 [Example 58, (Z)-tert-butyl 4-(2-((2,4-dioxothiazolidin-5-ylidene)methyl)phenyl)piperazine-1-carboxylate]	7.1	16
COc1cc(/C=C2\SC(=O)NC2=O)ccc1OCCN1CCCCC1 [Example 59, (Z)-5-(3-methoxy-4-(2-(piperidin-1-yl)ethoxy)benzylidene)thiazolidine-2,4-dione]	6.6	< 5
